Measured values: patent US20240174639A1, “PYRIDINE DERIVATIVES USEFUL AS HCN2 MODULATORS” (King's College London, priority 2021, published 2024)
Structures can show the parent of a compound that is named as a salt.

Assays:
HCN2 = target: T1, HCN2 (Homo sapiens, UniProt Q9UL51); assay: HCN2 assay using PatchXpress 7000A (Example 50A); format: cell-based; settings: PatchXpress protocol (PX)
T1 sequence (Q9UL51 1-889): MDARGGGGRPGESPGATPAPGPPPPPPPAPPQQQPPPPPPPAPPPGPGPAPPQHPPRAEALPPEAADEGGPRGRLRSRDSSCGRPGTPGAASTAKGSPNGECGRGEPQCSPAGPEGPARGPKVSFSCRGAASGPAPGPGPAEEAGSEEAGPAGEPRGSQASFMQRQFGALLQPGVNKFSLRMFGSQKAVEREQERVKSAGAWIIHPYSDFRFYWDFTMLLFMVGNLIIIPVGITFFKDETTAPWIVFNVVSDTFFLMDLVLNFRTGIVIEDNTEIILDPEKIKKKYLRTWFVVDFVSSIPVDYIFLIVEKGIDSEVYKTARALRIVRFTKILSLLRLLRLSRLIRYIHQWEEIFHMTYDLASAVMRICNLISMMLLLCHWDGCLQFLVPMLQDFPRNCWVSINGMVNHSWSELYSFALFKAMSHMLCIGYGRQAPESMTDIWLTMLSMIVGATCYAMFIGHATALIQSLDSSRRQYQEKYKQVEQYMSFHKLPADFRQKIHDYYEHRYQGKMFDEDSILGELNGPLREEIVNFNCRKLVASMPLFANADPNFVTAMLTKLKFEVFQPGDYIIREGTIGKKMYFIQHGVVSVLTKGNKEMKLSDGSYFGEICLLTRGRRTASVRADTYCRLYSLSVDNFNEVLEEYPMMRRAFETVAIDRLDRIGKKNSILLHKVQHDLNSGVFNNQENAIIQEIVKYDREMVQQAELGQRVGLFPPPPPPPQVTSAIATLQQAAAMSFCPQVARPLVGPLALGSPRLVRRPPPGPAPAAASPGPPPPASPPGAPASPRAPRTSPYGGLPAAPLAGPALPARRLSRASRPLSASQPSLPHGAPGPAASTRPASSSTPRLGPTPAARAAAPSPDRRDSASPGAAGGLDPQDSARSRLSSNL
From the text: (§1) Solutions for recording HON currents were:
For HCN1 and HCN2, the pulse protocol involved stepping from a holding potential of −30 mV to −110 mV (see FIG. 1A) for 2 seconds to evoke the current. The membrane voltage was then stepped back to −30 mV for a further 8 seconds. This sequence was evoked repeatedly every 10 seconds throughout the experiment, starting prior to drug (Control A) and during cumulative additions of 5 increasing compound concentrations, then finally a 100% inhibiting concentration of cesium chloride (CsCl, 3 mM).
(§2) The peak inward current measured at the end of the pulse to −110 mV (HCN1 and HCN2) or −130 mV (HCN4) was measured and any leak current subtracted to calculate the HCN current. The HCN current amplitude was measured after each control or compound addition and normalized to the control amplitude (Control A).
(§3) All experiments were performed at room temperature (approximately 22° C.).
(§4) Each test compound concentration was applied to the cell for seven (7) minutes, at which point the next cumulative concentration was applied. 3 mM CsCl was applied to each cell for 2 minutes at the end of each experiment (Control B) to determine 100% inhibition level of the HCN current.

HCN4 = target: T2, HCN4 (Homo sapiens, UniProt Q9Y3Q4); assay: HCN4 assay using PatchXpress 7000A (Example 50A); format: cell-based; settings: PatchXpress protocol (PX)
T2 sequence (Q9Y3Q4 1-1203): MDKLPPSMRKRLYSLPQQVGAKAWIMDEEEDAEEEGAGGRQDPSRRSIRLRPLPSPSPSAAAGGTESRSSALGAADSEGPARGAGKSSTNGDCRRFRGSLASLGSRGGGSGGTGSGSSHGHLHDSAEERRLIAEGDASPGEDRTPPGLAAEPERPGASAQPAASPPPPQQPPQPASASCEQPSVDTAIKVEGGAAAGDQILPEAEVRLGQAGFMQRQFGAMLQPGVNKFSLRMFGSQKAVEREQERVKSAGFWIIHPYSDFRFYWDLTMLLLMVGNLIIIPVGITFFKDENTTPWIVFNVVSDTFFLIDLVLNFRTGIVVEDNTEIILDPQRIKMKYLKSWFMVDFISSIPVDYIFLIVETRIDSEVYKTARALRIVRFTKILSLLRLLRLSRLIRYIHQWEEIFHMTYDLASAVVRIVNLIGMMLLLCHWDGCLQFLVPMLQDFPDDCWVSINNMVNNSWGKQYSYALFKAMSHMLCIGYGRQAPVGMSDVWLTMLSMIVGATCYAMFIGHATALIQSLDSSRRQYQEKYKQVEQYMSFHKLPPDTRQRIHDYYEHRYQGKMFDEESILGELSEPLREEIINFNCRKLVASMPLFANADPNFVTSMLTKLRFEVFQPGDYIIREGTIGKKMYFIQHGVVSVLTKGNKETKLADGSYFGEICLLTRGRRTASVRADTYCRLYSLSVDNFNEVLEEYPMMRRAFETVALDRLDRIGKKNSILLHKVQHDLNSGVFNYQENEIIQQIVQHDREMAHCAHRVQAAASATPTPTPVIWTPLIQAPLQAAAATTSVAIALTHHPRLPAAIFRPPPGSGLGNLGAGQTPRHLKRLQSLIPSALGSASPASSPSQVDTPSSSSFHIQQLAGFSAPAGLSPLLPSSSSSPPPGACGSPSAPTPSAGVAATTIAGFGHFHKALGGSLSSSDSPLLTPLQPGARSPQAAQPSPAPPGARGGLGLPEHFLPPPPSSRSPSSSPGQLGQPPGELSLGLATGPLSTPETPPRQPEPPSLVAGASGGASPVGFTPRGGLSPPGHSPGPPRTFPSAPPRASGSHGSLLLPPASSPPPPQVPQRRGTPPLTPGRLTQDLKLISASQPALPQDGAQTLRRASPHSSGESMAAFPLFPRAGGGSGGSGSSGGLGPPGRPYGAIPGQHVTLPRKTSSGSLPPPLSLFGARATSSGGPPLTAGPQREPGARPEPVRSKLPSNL
Procedure: as §1
For HCN4, the pulse protocol involved stepping from a holding potential of −30 mV to −130 mV (see FIG. 1B) for 4 seconds to evoke the current.
as §2, §3, §4

| IC50 (HCN2) | IC50 (HCN4) | Structure (SMILES) |
| --- | --- | --- |
| 0.9 µM | 3.4 µM | N[C@@H](Cc1ccccn1)c1ccccc1-n1ncc2cc(Br)ccc21 [Example 1, (S)-1-[2-(5-Bromo-1H-indazol-1-yl)phenyl]-2-(pyridine-2-yl)ethane-1-amine hydrochloride] |
| 3.5 µM | > 30 µM | N#Cc1ccc2c(cnn2-c2ccccc2[C@@H](N)Cc2ccccn2)c1 [Example 3, (S)-1-{2-[1-Amino-2-(pyridine-2-yl)ethyl]-phenyl}-1H-indazole-5-carbonitrile hydro-chloride] |
| 1.9 µM | > 30 µM | Cc1cccc(C[C@H](N)c2ncccc2-n2ncc3ccccc32)n1 [Example 5, (S)-1-[3-(1H-indazole-1-yl)pyridine-2-yl]-2-(6-methylpyridine-2-yl)ethan-1-amine hydrochloride] |
| 1.1 µM | 22.2 µM | N#Cc1cccc(C[C@H](N)c2ncccc2-n2ncc3ccccc32)n1 [Example 6, (S)-6-{2-[3-(1H-ind-azol-1-yl)pyridine-2-yl]-2-aminoethyl}pyridine-2-carbonitrile hydro-chloride] |
| 7 µM | > 30 µM | N[C@@H](Cc1ccccn1)c1ccccc1-n1ncc2cnccc21 [Example 7, (S)-1-[2-(1H-pyrazolo-[4,3-c]pyridine-1-yl)-phenyl]-2-(pyridine-2-yl)ethan-1-amine hydrochloride] |
| 28.1 µM | > 30 µM | CN(C)C(=O)c1cccc(C[C@H](N)c2ncccc2-n2ncc3ccccc32)n1 [Example 8, (S)-6-{2-[3-(1H-ind-azol-1-yl)pyridine-2-yl]-2-aminoethyl}-N,N-dimethylpyridine-2-carboxamide hydro-chloride] |
| 17.3 µM | > 30 µM | NC(=O)c1cccc(C[C@H](N)c2ncccc2-n2ncc3ccccc32)n1 [Example 9, (S)-6-{2-[3-(1H-ind-azol-1-yl)pyridine-2-yl]-2-aminoethyl}pyridine-2-carboxamide hydro-chloride] |
| 0.08 µM | 4.2 µM | N[C@@H](Cc1ncccc1F)c1ncccc1-n1ncc2ccccc21 [Example 10, (S)-1-[3-(1H-indazole-1-yl)pyridine-2-yl]-2-(3-fluoropyridine-2-yl)ethan-1-amine hydrochloride] |
| 0.16 µM |  | Cc1ccc(F)c(C[C@H](N)c2ncccc2-n2ncc3ccccc32)n1 [Example 11, (S)-1-[3-(1H-indazole-1-yl)pyridine-2-yl]-2-(3-fluoro-6-methyl-pyridine-2-yl)ethan-1-amine hydrochloride] |
| > 10 µM |  | N[C@@H](Cc1cccc(-c2cn[nH]c2)n1)c1ncccc1-n1ncc2ccccc21 [Example 12, (S)-1-[3-(1H-indazole-1-yl)pyridine-2-yl]-2-[6-(1H-pyrazol-4-yl)-pyridine-2-yl)ethan-1-amine hydrochloride] |
| > 10 µM |  | N[C@@H](Cc1cccc(OCCO)n1)c1ncccc1-n1ncc2ccccc21 [Example 13, (S)-2-[(6-{2-[3-(1H-Indazol-1-yl)pyridine-2-yl]-2-aminoethyl}-pyridine-2-yl)oxy]-ethan-1-ol hydro-chloride] |
| 3.7 µM |  | N[C@@H](Cc1cccc(CCO)n1)c1ncccc1-n1ncc2ccccc21 [Example 14, (S)-2-(6-{2-[3-(1H-Indazol-1-yl)pyridine-2-yl]-2-aminoethyl}-pyridine-2-yl)ethan-1-ol hydrochloride] |
| 2.1 µM | 14.8 µM | CCc1cccc(C[C@H](N)c2ncccc2-n2ncc3ccccc32)n1 [Example 15, (S)-1-[3-(1H-indazole-1-yl)pyridine-2-yl]-2-(6-ethylpyridine-2-yl)-ethan-1-amine hydro-chloride] |
| 0.13 µM | 2.1 µM | Cc1cccnc1C[C@H](N)c1ncccc1-n1ncc2ccccc21 [Example 16, (S)-1-[3-(1H-indazole-1-yl)pyridine-2-yl]-2-(3-methylpyridine-2-yl)ethan-1-amine hydrochloride] |
| 3.3 µM | 14.7 µM | N[C@@H](Cc1cccc(F)n1)c1ncccc1-n1ncc2ccccc21 [Example 17, (S)-1-[3-(1H-indazole-1-yl)pyridine-2-yl]-2-(6-fluoropyridine-2-yl)ethan-1-amine hydrochloride] |
| 0.5 µM | 11.7 µM | N[C@@H](Cc1ccc(F)cn1)c1ncccc1-n1ncc2ccccc21 [Example 18, (S)-1-[3-(1H-indazole-1-yl)pyridine-2-yl]-2-(5-fluoropyridine-2-yl)-ethan-1-amine hydro-chloride] |
| 6.9 µM |  | NC(=O)c1ccc(F)c(C[C@H](N)c2ncccc2-n2ncc3ccccc32)n1 [Example 19, (S)-6-{2-[3-(1H-ind-azol-1-yl)pyridine-2-yl]-2-aminoethyl}-5-fluoropyridine-2-carboxamide hydro-chloride] |
| 0.9 µM | 13 µM | Cc1nc(C[C@H](N)c2ncccc2-n2ncc3ccccc32)ccc1F [Example 20, (S)-1-[3-(1H-indazole-1-yl)pyridine-2-yl]-2-(5-fluoro-6-methyl-pyridine-2-yl)ethan-1-amine hydrochloride] |
|  | 19.2 µM | N[C@@H](Cc1nc(CCO)ccc1F)c1ncccc1-n1ncc2ccccc21 [Example 24, (S)-2-(6-{2-[3-(1H-Indazol-1-yl)pyridine-2-yl]-2-aminoethyl}-5-fluoropyridine-2-yl)-ethan-1-ol hydrochloride] |
| > 10 µM |  | NC(=O)c1nc(C[C@H](N)c2ncccc2-n2ncc3ccccc32)ccc1F [Example 27, (S)-6-{2-[3-(1H-ind-azol-1-yl)pyridine-2-yl]-2-aminoethyl}-3-fluoropyridine-2-carboxamide hydro-chloride] |
| 2.6 µM |  | CN(C)C(=O)c1ccc(F)c(C[C@H](N)c2ncccc2-n2ncc3ccccc32)n1 [Example 29, (S)-6-{2-[3-(1H-ind-azol-1-yl)pyridine-2-yl]-2-aminoethyl}-5-fluoro-N,N-dimethylpyridine-2-carboxamide hydro-chloride] |
| ~10 µM |  | CS(=O)(=O)c1cccc(C[C@H](N)c2ncccc2-n2ncc3ccccc32)n1 [Example 49, (S)-1-[3-(1H-indazole-1-yl)pyridine-2-yl]-2-(6-methylsulfonyl-pyridine-2-yl)ethan-1-amine hydrochloride] |
